{"source": "paper PMC7206119", "about": "“RIP1 inhibition blocks inflammatory diseases but not tumor growth or metastases” (Cell Death and Differentiation, 2019)", "assay_in_all_cases": "biochemical", "design_in_all_cases": "Thermo Fisher SelectScreen kinase panel: Z'-LYTE and Adapta activity, LanthaScreen binding", "key": {"EPHA3": {"molecular_target": "EPHA3 (Homo sapiens, UniProt P29320)", "sequence (P29320 whole entry)": "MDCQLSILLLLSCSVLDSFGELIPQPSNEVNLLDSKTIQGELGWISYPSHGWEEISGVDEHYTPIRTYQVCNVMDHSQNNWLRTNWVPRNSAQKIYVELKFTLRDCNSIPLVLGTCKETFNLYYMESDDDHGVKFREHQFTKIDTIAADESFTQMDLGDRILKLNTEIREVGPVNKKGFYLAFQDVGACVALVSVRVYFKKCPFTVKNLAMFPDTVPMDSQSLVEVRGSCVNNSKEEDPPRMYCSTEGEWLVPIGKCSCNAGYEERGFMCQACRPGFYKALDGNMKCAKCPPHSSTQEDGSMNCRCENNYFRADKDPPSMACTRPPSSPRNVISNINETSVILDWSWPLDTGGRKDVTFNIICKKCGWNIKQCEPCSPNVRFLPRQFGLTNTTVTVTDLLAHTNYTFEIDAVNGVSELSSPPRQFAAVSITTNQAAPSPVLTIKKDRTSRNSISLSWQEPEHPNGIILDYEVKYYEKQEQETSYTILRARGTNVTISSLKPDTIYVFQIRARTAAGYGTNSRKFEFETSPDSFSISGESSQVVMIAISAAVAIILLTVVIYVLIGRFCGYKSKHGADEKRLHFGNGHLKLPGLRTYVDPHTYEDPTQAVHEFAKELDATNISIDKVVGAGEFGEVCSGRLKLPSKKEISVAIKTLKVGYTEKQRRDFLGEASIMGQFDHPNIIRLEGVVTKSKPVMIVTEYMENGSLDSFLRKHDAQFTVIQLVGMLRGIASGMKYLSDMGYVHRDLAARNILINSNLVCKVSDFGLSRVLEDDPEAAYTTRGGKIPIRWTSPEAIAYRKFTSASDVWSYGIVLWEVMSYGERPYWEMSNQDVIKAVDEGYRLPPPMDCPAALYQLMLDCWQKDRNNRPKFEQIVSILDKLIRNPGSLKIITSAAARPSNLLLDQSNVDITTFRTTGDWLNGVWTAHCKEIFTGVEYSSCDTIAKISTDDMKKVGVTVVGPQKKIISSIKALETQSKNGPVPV", "procedure": "(§1) 5 88 GNE684 was tested in Thermo Fisher Scientific SelectScreen assay (Madison, WI) 89 against 221 representative kinases at a concentration of 10 µM, which is 476-fold greater than the Ki app 90 for GNE684 against human RIP1 in the RIP1 enzyme 91 assay. The kinase assays were carried out using Z'-LYTE and Adapta activity and 92 LanthaScreen binding assays (Thermo Fisher Scientific, Madison WI) following 93 protocols developed and performed by Thermo Fisher Scientific 94 (https://www.thermofisher.com/us/en/home/products-and-services/services/custom-95 services/screening-and-profiling-services/selectscreen-profiling-service/selectscreen-96 kinase-profiling-service.html). 97 GNE684 was also tested against 468 kinases in the KINOMEscan scanMAX kinase 98 binding assay panel at a concentration of 10 µM following protocols developed and 99 performed by DiscoverX (http://www.discoverx.com/kinase_profiling)."}, "PAK4": {"molecular_target": "PAK4 (Homo sapiens, UniProt O96013)", "procedure": "as §1"}, "DDR1": {"molecular_target": "DDR1 (Homo sapiens, UniProt Q08345)", "sequence (Q08345 whole entry)": "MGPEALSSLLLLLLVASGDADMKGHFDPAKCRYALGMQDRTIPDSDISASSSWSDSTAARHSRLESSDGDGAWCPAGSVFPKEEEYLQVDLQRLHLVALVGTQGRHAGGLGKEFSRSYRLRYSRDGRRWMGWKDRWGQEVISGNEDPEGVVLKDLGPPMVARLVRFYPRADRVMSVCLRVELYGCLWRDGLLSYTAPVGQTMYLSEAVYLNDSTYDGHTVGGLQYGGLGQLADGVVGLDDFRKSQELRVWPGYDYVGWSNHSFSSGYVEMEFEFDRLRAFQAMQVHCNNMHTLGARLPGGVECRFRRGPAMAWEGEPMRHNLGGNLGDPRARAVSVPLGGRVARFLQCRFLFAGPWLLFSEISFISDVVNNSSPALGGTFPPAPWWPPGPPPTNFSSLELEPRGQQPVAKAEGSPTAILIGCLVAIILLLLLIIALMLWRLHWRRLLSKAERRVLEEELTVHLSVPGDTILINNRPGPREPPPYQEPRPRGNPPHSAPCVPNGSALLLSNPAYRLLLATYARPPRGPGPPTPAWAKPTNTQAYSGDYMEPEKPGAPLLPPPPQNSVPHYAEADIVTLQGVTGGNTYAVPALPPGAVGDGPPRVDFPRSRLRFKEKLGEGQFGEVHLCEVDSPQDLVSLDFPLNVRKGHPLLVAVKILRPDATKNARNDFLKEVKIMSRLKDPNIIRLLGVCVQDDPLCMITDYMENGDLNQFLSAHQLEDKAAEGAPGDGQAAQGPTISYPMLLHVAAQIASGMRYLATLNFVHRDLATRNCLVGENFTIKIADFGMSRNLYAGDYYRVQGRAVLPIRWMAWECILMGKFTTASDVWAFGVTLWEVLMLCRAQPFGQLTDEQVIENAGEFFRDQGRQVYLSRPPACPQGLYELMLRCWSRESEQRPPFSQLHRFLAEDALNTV", "procedure": "as §1"}, "p38-gamma": {"molecular_target": "T1, p38-gamma (Homo sapiens, UniProt P53778)", "T1 construct": "gene MAPK12", "procedure": "as §1"}, "PAK6": {"molecular_target": "PAK6 (Homo sapiens, UniProt Q9NQU5)", "sequence (Q9NQU5 whole entry)": "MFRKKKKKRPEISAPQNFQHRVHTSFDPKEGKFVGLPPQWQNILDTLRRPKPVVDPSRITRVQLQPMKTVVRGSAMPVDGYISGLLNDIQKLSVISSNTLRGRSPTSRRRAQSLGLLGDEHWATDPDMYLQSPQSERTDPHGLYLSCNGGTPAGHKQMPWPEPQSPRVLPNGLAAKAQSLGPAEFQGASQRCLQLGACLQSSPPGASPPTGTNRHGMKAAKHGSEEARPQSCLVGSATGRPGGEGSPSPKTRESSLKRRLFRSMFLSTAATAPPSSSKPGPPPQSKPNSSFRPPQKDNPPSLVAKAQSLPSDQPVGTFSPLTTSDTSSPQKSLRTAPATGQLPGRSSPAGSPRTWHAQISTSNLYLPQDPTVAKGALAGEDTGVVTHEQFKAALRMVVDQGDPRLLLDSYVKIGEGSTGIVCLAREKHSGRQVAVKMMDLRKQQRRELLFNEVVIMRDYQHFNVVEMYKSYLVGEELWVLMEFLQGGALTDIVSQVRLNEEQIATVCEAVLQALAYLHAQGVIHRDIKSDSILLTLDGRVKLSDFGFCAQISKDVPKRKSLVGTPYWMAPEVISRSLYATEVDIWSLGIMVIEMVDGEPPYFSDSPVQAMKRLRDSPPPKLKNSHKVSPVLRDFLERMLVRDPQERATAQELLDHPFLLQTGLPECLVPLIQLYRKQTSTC", "procedure": "as §1"}, "Rse": {"molecular_target": "T2, Rse (Homo sapiens, UniProt Q06418)", "T2 construct": "gene TYRO3", "procedure": "as §1"}, "TTK": {"molecular_target": "TTK (Homo sapiens, UniProt P33981)", "procedure": "as §1"}, "Mink1": {"molecular_target": "Mink1 (Homo sapiens, UniProt Q8N4C8)", "procedure": "as §1"}, "MSK1": {"molecular_target": "T3, MSK1 (Homo sapiens, UniProt O75582)", "T3 construct": "gene RPS6KA5", "procedure": "as §1"}, "YSK1": {"molecular_target": "T4, YSK1 (Homo sapiens, UniProt O00506)", "T4 construct": "gene STK25", "procedure": "as §1"}, "CDK5/p25": {"molecular_target": "T5, CDK5/p25 (Homo sapiens, UniProt Q00535)", "T5 construct": "p25", "procedure": "as §1"}, "TRKB": {"molecular_target": "T6, TRKB (Homo sapiens, UniProt Q16620)", "T6 construct": "gene NTRK2", "procedure": "as §1"}, "IRR": {"molecular_target": "T7, IRR (Homo sapiens, UniProt P14616)", "T7 construct": "gene INSRR", "procedure": "as §1"}, "MUSK": {"molecular_target": "MUSK (Homo sapiens, UniProt O15146)", "procedure": "as §1"}, "PRK1": {"molecular_target": "T8, PRK1 (Homo sapiens, UniProt Q16512)", "T8 construct": "gene PKN1", "procedure": "as §1"}, "ZAK": {"molecular_target": "T9, ZAK (Homo sapiens, UniProt Q9NYL2)", "T9 construct": "gene MAP3K20", "procedure": "as §1"}, "ITK": {"molecular_target": "ITK (Homo sapiens, UniProt Q08881)", "sequence (Q08881 whole entry)": "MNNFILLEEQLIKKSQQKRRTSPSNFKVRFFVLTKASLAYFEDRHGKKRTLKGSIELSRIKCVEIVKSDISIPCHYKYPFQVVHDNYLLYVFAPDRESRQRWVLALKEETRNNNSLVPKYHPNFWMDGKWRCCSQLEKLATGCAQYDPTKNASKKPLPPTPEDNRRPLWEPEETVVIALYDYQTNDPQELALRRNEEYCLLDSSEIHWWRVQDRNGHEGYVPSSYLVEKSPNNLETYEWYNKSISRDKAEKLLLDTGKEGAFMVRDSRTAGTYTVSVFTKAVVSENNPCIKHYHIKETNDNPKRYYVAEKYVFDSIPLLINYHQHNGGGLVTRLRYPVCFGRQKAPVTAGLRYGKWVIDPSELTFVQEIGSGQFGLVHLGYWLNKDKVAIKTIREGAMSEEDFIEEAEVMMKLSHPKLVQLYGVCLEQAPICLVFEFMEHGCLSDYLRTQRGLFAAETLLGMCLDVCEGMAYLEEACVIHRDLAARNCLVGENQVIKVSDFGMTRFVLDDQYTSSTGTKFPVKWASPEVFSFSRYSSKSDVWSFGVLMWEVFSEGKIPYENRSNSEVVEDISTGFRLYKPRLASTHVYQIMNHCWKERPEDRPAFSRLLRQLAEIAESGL", "procedure": "as §1"}, "ARK5": {"molecular_target": "T10, ARK5 (Homo sapiens, UniProt O60285)", "T10 construct": "gene NUAK1", "procedure": "as §1"}, "EGFR": {"molecular_target": "EGFR (Homo sapiens, UniProt P00533)", "sequence (P00533 whole entry)": "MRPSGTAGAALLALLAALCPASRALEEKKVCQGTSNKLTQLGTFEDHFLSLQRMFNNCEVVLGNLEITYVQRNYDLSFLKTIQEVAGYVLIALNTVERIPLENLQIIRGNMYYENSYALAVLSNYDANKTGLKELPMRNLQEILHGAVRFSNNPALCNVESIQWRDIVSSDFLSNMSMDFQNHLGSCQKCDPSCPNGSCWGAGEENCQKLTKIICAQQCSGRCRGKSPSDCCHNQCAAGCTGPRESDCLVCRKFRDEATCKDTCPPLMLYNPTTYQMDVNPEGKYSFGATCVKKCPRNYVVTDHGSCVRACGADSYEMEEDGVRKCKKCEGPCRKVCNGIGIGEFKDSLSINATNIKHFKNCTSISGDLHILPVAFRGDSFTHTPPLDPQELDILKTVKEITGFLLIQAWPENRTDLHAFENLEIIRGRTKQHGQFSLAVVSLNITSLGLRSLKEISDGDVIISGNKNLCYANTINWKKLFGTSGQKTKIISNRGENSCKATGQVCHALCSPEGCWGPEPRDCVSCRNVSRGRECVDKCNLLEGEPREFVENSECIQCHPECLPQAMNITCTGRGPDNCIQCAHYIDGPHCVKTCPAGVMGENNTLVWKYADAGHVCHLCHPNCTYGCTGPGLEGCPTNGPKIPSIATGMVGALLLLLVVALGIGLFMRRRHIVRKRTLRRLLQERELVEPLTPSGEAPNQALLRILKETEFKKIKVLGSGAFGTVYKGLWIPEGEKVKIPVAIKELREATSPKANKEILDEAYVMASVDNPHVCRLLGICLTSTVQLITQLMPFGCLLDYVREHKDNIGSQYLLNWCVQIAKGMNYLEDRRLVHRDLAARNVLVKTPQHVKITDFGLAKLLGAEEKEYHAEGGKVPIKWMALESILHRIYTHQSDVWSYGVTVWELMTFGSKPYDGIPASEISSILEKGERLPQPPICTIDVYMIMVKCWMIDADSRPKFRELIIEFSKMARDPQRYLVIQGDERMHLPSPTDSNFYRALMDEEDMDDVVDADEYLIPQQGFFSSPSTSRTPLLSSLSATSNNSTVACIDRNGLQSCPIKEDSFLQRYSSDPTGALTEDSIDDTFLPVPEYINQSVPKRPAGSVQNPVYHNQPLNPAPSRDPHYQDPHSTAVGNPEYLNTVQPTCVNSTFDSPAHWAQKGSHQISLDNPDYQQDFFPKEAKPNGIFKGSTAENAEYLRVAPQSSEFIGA", "procedure": "as §1"}, "FRK": {"molecular_target": "FRK (Homo sapiens, UniProt P42685)", "procedure": "as §1"}, "Aurora_B": {"molecular_target": "T11, Aurora_B (Homo sapiens, UniProt Q96GD4)", "T11 construct": "gene AURKB", "procedure": "as §1"}, "MYLK3(caMLCK)": {"molecular_target": "T12, MYLK3(caMLCK) (Homo sapiens, UniProt Q32MK0)", "T12 construct": "cardiac MLCK", "procedure": "as §1"}, "SRPK1": {"molecular_target": "SRPK1 (Homo sapiens, UniProt Q96SB4)", "sequence (Q96SB4 whole entry)": "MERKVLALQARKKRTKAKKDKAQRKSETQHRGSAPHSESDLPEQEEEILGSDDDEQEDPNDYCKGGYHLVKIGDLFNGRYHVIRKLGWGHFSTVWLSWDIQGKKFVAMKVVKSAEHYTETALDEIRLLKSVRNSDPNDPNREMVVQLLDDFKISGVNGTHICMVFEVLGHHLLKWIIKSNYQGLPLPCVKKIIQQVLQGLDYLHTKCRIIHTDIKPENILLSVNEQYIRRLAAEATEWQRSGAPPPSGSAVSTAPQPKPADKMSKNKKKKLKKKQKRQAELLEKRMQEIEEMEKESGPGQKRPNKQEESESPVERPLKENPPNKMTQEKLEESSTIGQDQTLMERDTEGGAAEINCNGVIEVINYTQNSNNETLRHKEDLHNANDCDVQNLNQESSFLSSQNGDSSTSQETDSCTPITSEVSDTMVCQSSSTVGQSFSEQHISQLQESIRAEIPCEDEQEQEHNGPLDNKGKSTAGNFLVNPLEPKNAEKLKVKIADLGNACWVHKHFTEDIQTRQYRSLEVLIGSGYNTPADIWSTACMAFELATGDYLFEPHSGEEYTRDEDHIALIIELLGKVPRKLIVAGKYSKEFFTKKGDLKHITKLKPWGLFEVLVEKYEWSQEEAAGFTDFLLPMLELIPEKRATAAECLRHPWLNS", "procedure": "as §1"}}, "data": [{"smiles": "COc1cc2c(cn1)N(C)C(=O)[C@@H](NC(=O)c1nc3n(n1)[C@H](c1ccccc1)CC3)CC2", "note": "[GNE684, (S)-N-((S)-7-methoxy-1-methyl-2-oxo-2,3,4,5-tetrahydro-1H-pyrido[3,4-b]azepin-3-yl)-5-phenyl-6,7-dihydro-5H-pyrrolo[1,2-b][1,2,4]triazole-2-carboxamide]", "values": [{"measurement": "inhibition at 10 µM", "setting": "EPHA3", "value": -3.5, "unit": "%"}, {"measurement": "inhibition at 10 µM", "setting": "PAK4", "value": 14, "unit": "%"}, {"measurement": "inhibition at 10 µM", "setting": "DDR1", "value": 4.5, "unit": "%"}, {"measurement": "inhibition at 10 µM", "setting": "p38-gamma", "value": 7, "unit": "%"}, {"measurement": "inhibition at 10 µM", "setting": "PAK6", "value": 4.5, "unit": "%"}, {"measurement": "inhibition at 10 µM", "setting": "Rse", "value": 5, "unit": "%"}, {"measurement": "inhibition at 10 µM", "setting": "TTK", "value": -2.5, "unit": "%"}, {"measurement": "inhibition at 10 µM", "setting": "Mink1", "value": 18.5, "unit": "%"}, {"measurement": "inhibition at 10 µM", "setting": "MSK1", "value": -4, "unit": "%"}, {"measurement": "inhibition at 10 µM", "setting": "YSK1", "value": 3.5, "unit": "%"}, {"measurement": "inhibition at 10 µM", "setting": "CDK5/p25", "value": 4.5, "unit": "%"}, {"measurement": "inhibition at 10 µM", "setting": "TRKB", "value": -5, "unit": "%"}, {"measurement": "inhibition at 10 µM", "setting": "IRR", "value": 12, "unit": "%"}, {"measurement": "inhibition at 10 µM", "setting": "MUSK", "value": 14, "unit": "%"}, {"measurement": "inhibition at 10 µM", "setting": "PRK1", "value": 2.5, "unit": "%"}, {"measurement": "inhibition at 10 µM", "setting": "ZAK", "value": -0.5, "unit": "%"}, {"measurement": "inhibition at 10 µM", "setting": "ITK", "value": 5, "unit": "%"}, {"measurement": "inhibition at 10 µM", "setting": "ARK5", "value": -6.5, "unit": "%"}, {"measurement": "inhibition at 10 µM", "setting": "EGFR", "value": 2.5, "unit": "%"}, {"measurement": "inhibition at 10 µM", "setting": "FRK", "value": 4.5, "unit": "%"}, {"measurement": "inhibition at 10 µM", "setting": "Aurora_B", "value": 6.5, "unit": "%"}, {"measurement": "inhibition at 10 µM", "setting": "MYLK3(caMLCK)", "value": -11, "unit": "%"}, {"measurement": "inhibition at 10 µM", "setting": "SRPK1", "value": -0.5, "unit": "%"}]}]}
